Reference: patent US20070021501A1, “Methods of treating epileptogenesis” (priority 2005, published 2007)

How the values were obtained:
[1] = system: lithium-pilocarpine model of temporal lobe epilepsy in the rat; assay: Latency to and frequency of spontaneous seizures, video recording (Example 2); assay type: in vivo, Sprague-Dawley rats
Protocol: The effects of DZP and the 4 doses of TC on epileptogenesis were investigated by daily video recording of the animals for 10 h per day. Video recording was performed for 4 weeks during which the occurrence of the first seizure was noted as well as the total number of seizures over the whole period. Animals were then taken off the video recording system and kept for 4 additional weeks in our animal facilities before they were sacrificed after a total period of 8 weeks of epilepsy.

[2] = system: lithium-pilocarpine status epilepticus in the rat; assay: Mortality induced by SE, lithium-pilocarpine model (Example 1); assay type: in vivo
Excerpt: The model induced in rats by pilocarpine associated with lithium (Li-Pilo) reproduces most of the clinical and neurophysiological features of human temporal lobe epilepsy (Turski et al., 1989, Synapse 3:154-171; Cavalheiro, 1995, Ital J Neurol Sci 16:33-37). In adult rats, the systemic administration of pilocarpine leads to status epilepticus (SE). The lethality rate reaches 30-50% during the first days. In the surviving animals, neuronal damage predominates within the hippocampal formation, the piriform and entorhinal cortices, thalamus, amygdaloid complex, neocortex and substantia nigra.
(§1) Male Wistar rats weighing 225-250 g, provided by Janvier Breeding Center (Le Genest-St-lste, France) were housed under controlled standard conditions (light/dark cycle, 7.00 a.m.-7.00 p.m. lights on), with food and water available ad libitum. All animal experimentation was performed in accordance with the rules of the European Communities Council Directive of Nov. 24, 1986 (86/609/EEC), and the French Department of Agriculture (License N^o 67-97). For electrode implantation, rats were anesthetized by an i.p. injection of 2.5 mg/kg diazepam (DZP, Valium, Roche, France) and […] ketamine chlorhydrate (Imalgene 1000, Rhone Merrieux, France). Four single-contact recording electrodes were placed on the skull, over the parietal cortex, two on each side.
(§2) The bilateral EEG cortical activity was recorded during the whole duration of SE and behavioral changes were noted.
The effects of increasing doses of the test compound were studied on 3 groups of rats. The animals of the first group received 10 mg/kg of the test compound, i.p., 1 h after the onset of SE (pilo-TC10) while the animals of groups 2 and 3 received 30 and 60 mg/kg of the test compound (pilo-TC30 and pilo-TC60), respectively.
The control group received saline instead of pilocarpine and the test compound (saline-saline). […] Pilo-DZP received a second injection of 1 mg/kg DZP on the day of SE at about 10 h after the first one. Thereafter, Pilo-DZP and saline-saline rats received twice daily an equivalent volume of saline.

[3] = system: lithium-pilocarpine status epilepticus in the rat; assay: Mortality over the first 48 h after Li-pilo SE (Example 2); assay type: in vivo, Sprague-Dawley rats
Protocol: Adult male Sprague-Dawley rats provided by Janvier Breeding Center (Le Genest-St-lsle, France) were housed under controlled, uncrowded standard conditions at 20-22° C. (light/dark cycle, 7.00 a.m.-7.00 p.m. lights on), with food and water available ad libitum. All animal experimentation was performed in accordance with the rules of the European Communities Council Directive of Nov. 24, 1986 (86/609/EEC), and the French Department of Agriculture (License N^o 67-97).

[4] = system: lithium-pilocarpine model of temporal lobe epilepsy in the rat; assay: Quantification of cell densities (neuronal counting) 14 days after Li-pilo SE (Example 2); conditions: 14 days after SE; for cell loss: hippocampus CA1 pyramidal cell layer
Protocol: All rats received lithium chloride (3 meq/kg, i.p., Sigma, St Louis, Mo., U.S.A.) and about 20 h later, all animals received also methylscopolamine bromide (1 mg/kg, s.c., Sigma) that was administered to limit the peripheral effects of the convulsant. […] The effects of increasing doses of TC were studied in 5 groups of rats. […] The control group received vehicle instead of pilocarpine and TC.
For neuronal counting, animals were deeply anesthetized with 1.8 g/kg pentobarbital (Dolethal®, Vétoquinol, Lure, France). Brains were then removed and frozen. Serial 20 μm slices were cut in a cryostat, air-dried during several days before thionine staining. […] The grid of counting was placed on a well defined area of the cerebral structure of interest and counting was carried out with a microscopic enlargement of 200- or 400-fold defined for each single cerebral structure. Cell counts were performed twice on each side of three adjacent sections for each region by a single observer unaware of the animal's treatment. The number of cells obtained in the 12 counted fields in each cerebral structure was averaged. This procedure was used to minimize the potential errors that could result from double counting leading to overestimation of cell numbers. […] Counts involved only neurons with cell bodies larger than 10 μm. Cells with small cell bodies were considered as glial cells and were not counted.
For neuronal damage and epileptogenesis, statistical analysis between groups was performed by means of a one-way analysis of variance followed by a post-hoc Dunnett or Fisher test using the Statistica software.

[5] = system: lithium-pilocarpine status epilepticus in the rat; assay: EEG patterns during and after Li-pilo SE (Example 1); assay type: in vivo
Protocol: as §1, §2
The effects of the test compound on the EEG and on the latency to occurrence of SRS were investigated by daily video recording of the animals for 10 h per day and the recording of the electrographic activity twice a week for 8 h.

[6] = system: lithium-pilocarpine model of temporal lobe epilepsy in the rat; assay: Mossy fiber sprouting in hippocampus, Timm staining (Example 1); assay type: in vivo
Protocol: At 2 months after the onset of spontaneous recurrent seizures, mossy fiber sprouting was examined on rats in the chronic period exposed to the test compound or DZP and in 3 saline-saline rats. Animals were deeply anaesthetized and perfused transcardially with saline followed by 100 ml of 1.15% (w/v) Na2S in 0.1 M phosphate buffer, and 100 ml of 4% (v/v) formaldehyde in 0.1 M phosphate buffer. Brains were removed from skull, post-fixed in 4% formaldehyde during 3-5 h and 40 μm sections were cut on a sliding vibratome and mounted on gelatin-coated slides.
The following day, sections were developed in the dark in a 26° C. solution of 50% (w/v) arabic gum (160 ml), sodium citrate buffer (30 ml), 5.7% (w/v) hydroquinone (80 ml) and 10% (w/v) silver nitrate (2.5 ml) during 40-45 min. The sections were then rinsed with tap water at 40° C. during at least 45 min, rinsed rapidly with distilled water and allowed to dry. They were dehydrated in ethanol and coverslipped.
Mossy fiber sprouting was evaluated according to criteria previously described in dorsal hippocampus (Cavazos et al., 1991, J Neurosci 11:2795-2803.), which are follows: 0—no granules between the tips and crest of the DG; 1—sparse granules in the supragranular region in a patchy distribution between the tips and crest of DG; 2—more numerous granules in a continuous distribution between the tips and crest of DG; 3—prominent granules in a continuous pattern between tips and crest, with occasional patches of confluent granules between tips and crest; 4—prominent granules that form a confluent dense laminar band between tips and crest and 5—confluent dense laminar band of granules that extends into the inner molecular layer.

Compound: NC(=O)OC[C@@H](O)c1ccccc1Cl [TC]
- frequency of spontaneous seizures over the four weeks of recording ([1]; TC 30 mg/kg): tendency to be higher
- percentage of rats with short latencies to seizures (shorter than 40 days after SE) ([1]; TC 90 mg/kg (4/11)): 36%
- percentage of non-epileptic rats (no seizure over 150 days post-SE) ([1]; TC 120 mg/kg): 45%
- percentage of rats with short latencies to seizures (shorter than 40 days after SE) ([1]; TC 120 mg/kg (1/9)): 11%
- frequency of spontaneous seizures over the four weeks of recording ([1]; TC60, 90 and 120 groups): lower
- mortality during the first 48 h after SE ([2]; TC 10 mg/kg i.p. 1 h after onset of SE (6/23)): 26%
- mortality during the first 48 h after SE ([2]; TC 30 mg/kg i.p. 1 h after onset of SE (5/25)): 20%
- mortality during the first 48 h after SE ([2]; TC 60 mg/kg i.p. 1 h after onset of SE (1/23), p<0.01): 4%
- mortality over the first 48 h after SE ([3]; TC 30 mg/kg, group devoted to cell counting at 14 days (4/12)): 33%
- mortality over the first 48 h after SE ([3]; TC 30 mg/kg, group devoted to latency to SRS and late cell counting (3/11)): 27%
- mortality over the first 48 h after SE ([3]; TC 60 mg/kg, group devoted to cell counting at 14 days (1/12)): 8%
- mortality over the first 48 h after SE ([3]; TC 60 mg/kg, group devoted to latency to SRS and late cell counting (0/10)): 0%
- mortality over the first 48 h after SE ([3]; TC 90 mg/kg, group devoted to cell counting at 14 days (0/10)): 0%
- mortality over the first 48 h after SE ([3]; TC 90 mg/kg, group devoted to latency to SRS and late cell counting (0/11)): 0%
- mortality over the first 48 h after SE ([3]; TC 120 mg/kg, group devoted to cell counting at 14 days (4/12)): 33%
- mortality over the first 48 h after SE ([3]; TC 120 mg/kg, group devoted to latency to SRS and late cell counting (0/9)): 0%
- neurons surviving ([4]; TC 120 mg/kg, all parts of the entorhinal cortex (range)): 85-94%
- neuronal loss ([4]; TC 120 mg/kg, hilus of dentate gyrus): 53%
- cell loss ([4]; TC 120 mg/kg): 12%
- neuronal drop out ([4]; TC 120 mg/kg, thalamic nuclei (range)): 4-19%
- cell loss (drop out) ([4]; TC30, 60 and 90 groups (range printed together with DZP group), hilus of dentate gyrus): 61-66%
- cell loss ([4]; TC30, 60 or 90 rats (range over groups)): 36-47%
- EEG after injection at 24 and 48 h after SE (silent period) ([5]; TC 10 mg/kg, between 1 and 8 h after injection): no change
- EEG by 6-7 h of SE ([5]; TC 10 mg/kg, cortex and hippocampus): spiking activity was still present in the cortex and the hippocampus
- amplitude of the EEG by 6-7 h of SE ([5]; TC 30 mg/kg, hippocampus): came back to baseline levels
- amplitude of the EEG by 6-7 h of SE ([5]; TC 60 mg/kg, hippocampus and cortex): came back to baseline levels
- EEG after injection at 24 and 48 h after SE (silent period) ([5]; TC 30 and 60 mg/kg, as soon as 10 min after injection): frequency and amplitude of PEDs decreased
- mean Timm score in the upper blade of the dentate gyrus ([6]; TC 10 mg/kg (n=7)): 1.5±0.6
- mean Timm score in the upper blade of the dentate gyrus ([6]; TC 30 mg/kg (n=10)): 2.6±1.0
- mean Timm score in the upper blade of the dentate gyrus ([6]; TC 60 mg/kg, whole group (n =11)): 1.5±0.7
